# Reference: patent US20260325538A1, “THERAPY” (priority 2023, published 2026)
# Assays:
# [1] = system: certain strains of Pseudomonas aeruginosa; settings: in combination with meropenem; cited from earlier work
# [2] = system: Klebsiella pneumoniae Kpn St147 (NDM-1 and KPC-2); assay: MIC determination of ceftazidime with zinc chelator and avibactam (checkerboard, broth microdilution); format: cell-based; settings: with CAZ and avibactam
# Text: The fractional inhibitory concentration (FIC) is defined as the concentration that kills when used in combination with another agent divided by the concentration that has the same effect when used alone. The FIC index (FICI) for the combination of two agents is the sum of their individual FIC values. […] The European Committee for Antimicrobial Susceptibility Testing (EUCAST) of the European Society of Clinical Microbiology and Infectious Diseases (ESCMID) 2000 adopts the following definitions to determine the susceptibility of bacteria to an antimicrobial agent (see EUCAST Definitive Document E. Def 1.2: Terminology relating to methods for the determination of susceptibility of bacteria to antimicrobial agents. Clin. Microbiol. Infect. 2000; 6(9): 503-508): • FICI value≤0.5; synergy • 0.5<FICI value≤1; additive effect • 1<FICI value≤2; indifferent effect • FICI≥2; antagonistic effect
# Antimicrobial susceptibility testing (AST) by broth microdilution was performed according to The European Committee on Antimicrobial Susceptibility Testing. Reading guide for broth microdilution. Version 4.0, 2022 (see: http://www.eucast.org).
# Checkerboard 96-well plates (Corning 3788) were made by conducting serial two-fold dilutions of CAZ in cation-adjusted Mueller Hinton II broth (caMHB; Thermo Scientific, T3462), in columns across the microtiter plate (64-0.03 μg/ml). Additionally, avibactam was added to rows 3 to 8 in concentrations of 64, 16, 8, 4, 1 and 0.25 μg/ml, respectively. The zinc chelator was added to the wells of the plate, where applicable. […] The first row in all plates was used as a positive control for CAZ only, and the second row included the zinc chelator in addition to CAZ (no avibactam added to rows 1 or 2). The zinc chelator was added at the indicated concentration to rows 3-8 of plates 2 and 3.
# The effect of the combination of zinc chelator/CAZ/avibactam was tested on a clinically isolated Klebsiella pneumoniae Kpn St147 actively constitutionally expressing the two resistance mechanisms NDM-1 and KPC-2 simultaneously. As a negative control, bacteria+CAZ was tested alone. As a positive control, bacteria+CAZ+zinc chelator was used. In Tables 3 and 4, concentrations (μg/ml) of CAZ are given in the top row left to right and avibactam concentrations (μg/ml) are given top to bottom in column 1.
# ΣFICI=MICA(combination)/MICA (alone)+MICB(combination)/MICB (alone)+MICC(combination)/MICC (alone)
structure (smiles),measurement,setting,value
CN(C[C@H](O)[C@@H](O)[C@H](O)[C@H](O)CO)C(=O)c1ccc(CN(Cc2ccccn2)Cc2ccccn2)nc1 [zinc chelator],effect of combination with meropenem,[1],poor effect
same,FICI Zinc Chelator,[2]; zinc chelator 8 μg/mL,0.0039
same,FICI Zinc Chelator,[2]; zinc chelator 16 μg/mL,0.0078
